In patent US11773071B2, “Benzothiazepine compounds and their use as bile acid modulators” (Albireo AB, priority 2019, dated 2023):

Legend:
Human IBAT = molecular target: T1, Human IBAT (Homo sapiens, UniProt Q12908); assay: IBAT (h/m) assay, human IBAT-overexpressing cells, 3H-taurocholic acid uptake; format: cell-based; conditions: 0.25 μM 3H-taurocholic acid and 5 μM cold taurocholic acid, 20 minutes, read-out: hIBAT IC50
T1 construct: expressed in transfected cells; Puromycin-selected
T1 sequence (Q12908 1-348): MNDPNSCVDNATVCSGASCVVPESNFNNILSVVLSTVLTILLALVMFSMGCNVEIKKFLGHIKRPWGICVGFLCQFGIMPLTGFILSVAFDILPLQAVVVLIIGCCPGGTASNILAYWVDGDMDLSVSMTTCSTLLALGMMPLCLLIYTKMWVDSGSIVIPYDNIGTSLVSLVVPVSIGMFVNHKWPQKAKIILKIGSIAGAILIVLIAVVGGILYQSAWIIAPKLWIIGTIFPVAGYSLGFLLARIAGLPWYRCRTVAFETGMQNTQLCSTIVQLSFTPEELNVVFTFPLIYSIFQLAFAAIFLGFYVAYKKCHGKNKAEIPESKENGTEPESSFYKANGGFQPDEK
Protocol: IBAT (h/m) Assay Protocol
10,000 cells (Human or Mouse IBAT-overexpressing cells) were seeded in 96-wells plate (Corning CLS3809) in 200 μL MEM-alpha medium (Gibco 12571-063) supplemented with 10% FBS (Gibco 10438026) containing Puromycin (Gibco A1113803) (10 μg/mL) and incubated at 37° C. in 5% CO2 for 48 hours. After incubation, media was decanted from the wells and cells were washed two times with 300 μL of basal MEM-alpha medium (FBS-free). After decanting basal MEM-alpha medium each time, plates were tapped against paper towel to ensure maximum removal of residual media. Test inhibitor dilutions (highest test concentration being 10 μM, 3-fold serial dilution, 10 points) prepared in DMSO (Sigma D2650) were added in incubation mix (maintaining 0.2% final DMSO concentration) containing 0.25 μM 3H-taurocholic acid (ARC ART-1368) and 5 μM of cold taurocholic acid (Sigma T4009). 50 μL of incubation mix containing test inhibitors was then added to the wells (in duplicate) and the plates were incubated for 20 minutes in a CO2 incubator at 37° C. After incubation, the reaction was stopped by keeping the plates on ice water mix for 2-3 minutes and then the incubation mix was aspirated completely from the wells. The wells were washed two times with 250 μL of chilled unlabelled 1 mM taurocholic acid dissolved in HEPES (Gibco 15630080)-buffered (10 mM) HBSS (Gibco 14175079) (pH 7.4). The plates were tapped against a paper towel after every wash to ensure maximum removal of blocking buffer.
100 μL of MicroScint-20 (PerkinElmer 6013621) was added to the wells and kept overnight at room temperature before reading the plates in TopCount NXT™ Microplate Scintillation and Luminescence Counter from PerkinElmer under 3H Test protocol (set at 120 seconds reading time per well).
(§1) Preparation of Test Compound Dilutions
(§2) All test compounds were provided in powder form at room temperature. 10 mM DMSO stocks of the test compounds were prepared, aliquoted and stored at −20° C. From the 10 mM DMSO stock of the compounds, a 3-fold serial dilution in DMSO was prepared to get a total of 10 dilutions of the test compounds. 0.5 μL of this dilution in DMSO was added to 250 μL of FBS-free basal media containing 3H-taurocholic acid and cold taurocholic acid to prepare the incubation mixture.

Human LBAT = molecular target: T2, Human LBAT (Homo sapiens, UniProt Q14973); assay: LBAT (h/m) assay, human LBAT-overexpressing cells, 3H-taurocholic acid uptake; format: cell-based; conditions: 0.3 μM 3H-taurocholic acid and 7.5 μM cold taurocholic acid, 20 minutes, read-out: hLBAT IC50
T2 construct: expressed in transfected cells; Geneticin-selected
T2 sequence (Q14973 1-349): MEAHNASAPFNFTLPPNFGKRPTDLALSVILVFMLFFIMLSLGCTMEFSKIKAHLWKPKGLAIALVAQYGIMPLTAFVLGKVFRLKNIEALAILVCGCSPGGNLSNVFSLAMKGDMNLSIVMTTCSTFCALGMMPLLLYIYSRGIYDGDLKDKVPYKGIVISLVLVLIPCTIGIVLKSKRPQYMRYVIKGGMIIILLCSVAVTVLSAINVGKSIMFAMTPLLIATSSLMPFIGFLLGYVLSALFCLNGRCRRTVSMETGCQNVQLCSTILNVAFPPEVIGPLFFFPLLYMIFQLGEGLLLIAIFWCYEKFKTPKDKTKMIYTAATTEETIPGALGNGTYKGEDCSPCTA
Protocol: LBAT (h/m) Assay Protocol
20,000 cells (Human or Mouse LBAT-overexpressing cells) were seeded in 96-wells plate (Corning CLS3809) in 100 μL MEM-alpha medium (Gibco 12571-063) supplemented with 10% FBS (Gibco 10438026) containing Geneticin (Gibco 10131-027) (1 mg/mL) and incubated at 37° C. in 5% CO2 for 24 hours. After incubation, media was decanted from the wells and cells were washed two times with 300 μL of basal MEM-alpha medium (FBS-free). After decanting basal MEM-alpha medium each time, plates were tapped against paper towel to ensure maximum removal of residual media.
For human LBAT, incubation mix was prepared by adding test inhibitor dilutions (3-fold serial dilution in DMSO (Sigma D2650), 10 points) in MEM-alpha (without FBS) containing 0.3 μM 3H-taurocholic acid (ARC ART-1368) and 7.5 μM cold taurocholic acid (Sigma T4009) (maintaining 0.2% final DMSO concentration). For mouse LBAT, incubation mix was prepared by adding test inhibitor dilutions (3-fold serial dilution in DMSO, 10 points) in MEM-alpha (without FBS) containing 0.3 μM 3H-taurocholic acid and 25 μM cold taurocholic acid maintaining 0.2% final DMSO concentration). 50 μL of incubation mix containing test inhibitors was then added to the wells (in duplicate) and the plates were incubated for 20 minutes in a CO2 incubator at 37° C. After incubation, the reaction was stopped by keeping the plates on ice water mix for 2-3 minutes and then the incubation mix was aspirated completely from the wells. The wells were washed two times with 250 μL of chilled unlabelled 1 mM taurocholic acid dissolved in HEPES (Gibco 15630080)-buffered (10 mM) HBSS (Gibco 14175079) (pH 7.4). The plates were tapped against a paper towel after every wash to ensure maximum removal of blocking buffer. 100 μL of MicroScint-20 (PerkinElmer 6013621) was added to the wells and kept overnight at room temperature before reading the plates in TopCount NXT™ Microplate Scintillation and Luminescence Counter from PerkinElmer under 3H Test protocol (set at 120 seconds reading time per well, with normal plate orientation).
as §1, §2

Structure (SMILES)	IC50 (Human IBAT)	IC50 (Human LBAT)
CCCCC1(CCCC)CN(c2ccccc2)c2cc(SC)c(OCC(C)(O)C(=O)O)cc2S(=O)(=O)C1 (single isomer, unassigned) [Example 21, 3-((3,3-dibutyl-7-(methylthio)-1,1-dioxido-5-phenyl-2,3,4,5-tetrahydro-1,5-benzothiazepin-8-yl)oxy)-2-hydroxy-2-methylpropanoic acid]	19 nM	608 nM
CCCCC1(CC)CN(c2ccccc2)c2cc(OC)c(OCCC(=O)O)cc2S(=O)(=O)C1 (racemic) [Example 43, 3-((3-butyl-3-ethyl-7-methoxy-1,1-dioxido-5-phenyl-2,3,4,5-tetrahydro-1,5-benzothiazepin-8-yl)oxy)propanoic acid]	44 nM	> 20000 nM
CCCCC1(CC)CN(c2ccccc2)c2cc(Cl)c(OC(C)CC(=O)O)cc2S(=O)(=O)C1 (single isomer, unassigned) [30, diastereomers 3 and 4]	263 nM	818 nM
CCCCC1(CC)CN(c2ccccc2)c2cc(OC)c(OCCC(=O)O)cc2S(=O)(=O)C1 (single isomer, unassigned) [44, enantiomer 2]	392 nM	> 23000 nM
CCCCC1(CC)CN(c2ccccc2)c2cc(SC)c(OCCC(=O)O)cc2S(=O)(=O)C1 (single isomer, unassigned) [Example 14, 3-((3-butyl-3-ethyl-7-(methylthio)-1,1-dioxido-5-phenyl-2,3,4,5-tetrahydro-1,5-benzothiazepin-8-yl)oxy)propanoic acid]	58 nM	764 nM
CCCCC1(C)CN(c2ccccc2)c2cc(SC)c(OC[C@H](O)C(=O)O)cc2S(=O)(=O)C1 (single isomer, unassigned) [Example 32, 3-((3-butyl-3-methyl-7-(methylthio)-1,1-dioxido-5-phenyl-2,3,4,5-tetrahydro-1,5-benzothiazepin-8-yl)oxy)-2-hydroxypropanoic acid]	8 nM	2260 nM

Further molecules by falling IC50 (Human IBAT), results first:

IC50 (Human IBAT)	IC50 (Human LBAT)	Structure (SMILES)
123 nM	5940 nM	CCCCC1(C)CN(c2ccccc2)c2cc(SC)c(OCC(C)(O)C(=O)O)cc2S(=O)(=O)C1 (single isomer, unassigned) [33, diastereomer 1]
39 nM	601 nM	CCCCC1(CCCC)CN(c2ccccc2)c2cc(SC)c(OCC(C)(O)C(=O)O)cc2S(=O)(=O)C1 (racemic) [Example 19, 3-((3,3-Dibutyl-7-(methylthio)-1,1-dioxido-5-phenyl-2,3,4,5-tetrahydro-1,5-benzothiazepin-8-yl)oxy)-2-hydroxy-2-methylpropanoic acid]
36 nM	2310 nM	CCCCC1(CC)CN(c2ccc(F)cc2)c2cc(SC)c(OCC(O)C(=O)O)cc2S(=O)(=O)C1 (single isomer, unassigned) [42, diastereomer 2]
36 nM	247 nM	CCCCC1(CC)CN(c2ccccc2)c2cc(Cl)c(OC(C)CC(=O)O)cc2S(=O)(=O)C1 (single isomer, unassigned) [30, diastereomers 1 and 2]
19 nM	1290 nM	CCCCC1(CC)CN(c2ccc(F)cc2)c2cc(SC)c(OCC(O)C(=O)O)cc2S(=O)(=O)C1 (single isomer, unassigned) [42, diastereomer 1]
4 nM	669 nM	CCCCC1(CC)CN(c2ccccc2)c2cc(SC)c(OCCC(=O)O)cc2S(=O)(=O)C1 (racemic) [Example 12, 3-((3-Butyl-3-ethyl-7-(methylthio)-1,1-dioxido-5-phenyl-2,3,4,5-tetrahydro-1,5-benzothiazepin-8-yl)oxy)propanoic acid]
0.5 nM	892 nM	CCCCC1(CC)CN(c2ccc(F)cc2)c2cc(SC)c(OCC(O)C(=O)O)cc2S(=O)(=O)C1 (single isomer, unassigned) [42, diastereomer 3]
